We go through two compounds from patent US20180117011A1, “ENZALUTAMIDE IN COMBINATION WITH AFURESERTIB FOR THE TREATMENT OF CANCER” (Novartis AG, priority 2013, published 2018).

Holding throughout (assay type): cell-based
Experiment [1] relates to cell signaling in LNCaP cells. Briefly: Effect on cell signaling (immunoblot assay). The conditions noted are these: 0.1 nM R1881, 6 hour, FIG. 2. How it is done: LNCaP cells were grown in RPMI 1640 culture medium supplemented with 10% charcoal-stripped fetal bovine serum for 48 hours in 6-well tissue culture plates at a density of 500,000 cells per well. Cells were treated with the indicated compounds for six hours, washed with PBS, and whole cell lysates were prepared in RIPA buffer (Teknova, Hollister, Calif.). Cell lysates were clarified by centrifugation at 20,000 relative centrifugal force, 4° C., and protein was quantified using the BCA Protein Assay Kit (Pierce, Rockford, Ill.). Equal amounts of protein lysates were separated by SDS-PAGE using a 4-12% Bis-Tris polyacrylamide gel (Life Technologies) and transferred to a nitrocellulose membrane and incubated with antibodies against total and phospho-AKT, phospho-PRAS40, total and phospho-S6, androgen receptor, and FKBP5. Following incubation with primary antibody, blots were washed and incubated with IRDye-800 anti-mouse or IRDye-680 anti-rabbit antibodies for 1 h. Following thorough washing, blots were analyzed using an infrared imaging system (LI-COR).

The subject of experiment [2] is LNCaP cells. Briefly: Cell proliferation assay (CellTiter-Glo, total cellular ATP). The conditions noted are these: charcoal-stripped serum, 0.1 nM R1881, 7 days; FIG. 1. How it is done: Androgen-dependent prostate cancer cell line, LNCaP, were grown in RPMI 1640 culture medium supplemented with 10% charcoal-stripped fetal bovine serum for 24 hours in 96-well tissue culture plates at a density of 1,000 cells per well. Cells were treated with various concentrations of compounds A or B alone and in combination in presence of synthetic androgen (R1881, Sigma-Aldrich, St. Louis, Mo.). After 7 days, total cellular ATP was measured using the CellTiter-Glo Luminescent Cell Viability Assay (Promega, Madison, Wis.) on an EnVision plate reader. Background counts from wells containing no cells were subtracted and the data is presented as a percentage of the DMSO-treated control cells.

For experiment [3], the system named is VCaP cells. Briefly: Luminescent caspase 3/7 assay in VCaP cells. As to conditions: 5 days, FIG. 3B. How it is done: (§1) Tumor cells were seeded in 96-well white tissue culture plates in 100 μL growth media (media with 10% FBS) or CSS media (media with 10% charcoal stripped fetal bovine serum). LNCaP cells were seeded at a density of 1,000 cells per well, whereas, VCaP cells were seeded at 7,500 cells per well. Approximately 24 hr after plating, duplicate or triplicate plates of cells were treated with indicated compounds for both luminescent caspase-3/7 and CTG readings. At the end of the 5 days of incubations, half of the plates were lysed and caspase-3/7 activity was measured using the Caspase-Glo® 3/7 Assay (Promega) according to the manufacturer's protocol. Briefly, Caspase-Glo reagent was added to each plate, incubated for at least 45 minutes, and luminescent signal was read on the EnVision Multilabel Plate Reader with a 0.1 sec integration time. The remaining plates were lysed and ATP levels were measured using the CTG assay. The caspase-3/7 signal was normalized to the ATP signal. The normalized values were expressed as a percentage of the control wells.

The test system of experiment [4] is LNCaP cells. As to the kind of experiment: Luminescent caspase 3/7 assay in LNCaP cells. The conditions noted are these: five days, FIG. 3A. The protocol: as §1

On to `Cn1ncc(Cl)c1-c1cc(C(=O)N[C@H](CN)Cc2cccc(F)c2)sc1Cl` [Compound B, N-{(1S)-2-amino-1-[(3-fluorophenyl)methyl]ethyl}-5-chloro-4-(4-chloro-1-methyl-1H-pyrazol-5-yl)-2-thiophenecarboxamide], for which the “phospho-AKT (T308)” value in experiment [1] (Compound B 100 or 300 nM alone or with compound A 3 uM) is on record as “increased”. In addition, in experiment [1] (Compound B 100 or 300 nM), the androgen receptor level entry is “no significant effect”, the “androgen receptor target gene (FKBP5) expression” value was “no significant effect”, the “phospho-PRAS40 (AKT downstream substrate)” value is “inhibited” and the “phospho-S6 (AKT downstream substrate)” value is given as “inhibited”. For the same compound, in experiment [2], the “LNCaP cell growth (anti-proliferative effect)” value is given as “inhibited”. For the same compound, the “caspase 3/7 activity induction in VCaP cells, media containing charcoal stripped serum (in words)” value in experiment [3] (Compound B 1 uM, CSS media) is reported as “not”. For the same compound, the “caspase 3/7 activity induction in VCaP cells, growth media (in words)” value in experiment [3] (Compound B 1 uM, growth media) was “strong induction”.

Take `CNC(=O)c1ccc(N2C(=S)N(c3ccc(C#N)c(C(F)(F)F)c3)C(=O)C2(C)C)cc1F` [Compound A, 4-(3-(4-Cyano-3-(trifluoromethyl)phenyl)-5,5-dimethyl-4-oxo-2-thioxoimidazolidin-1-yl)-2-fluoro-N-methylbenzamide, reference compound]: the “caspase 3/7 activity induction in LNCaP cells” value in experiment [4] (Compound A 10 uM, Compound B 1 uM, or both, medium not specified) is “no induction”. For the same compound, in experiment [4] (CSS media), the “caspase 3/7 activity induction in LNCaP cells, media containing charcoal stripped serum” value is “strong induction”. Moreover, the “caspase 3/7 activity induction in LNCaP cells, growth media” value in experiment [4] (growth media (10% FBS)) was “strong induction”. Besides, the “LNCaP cell growth (anti-proliferative effect)” value in experiment [2] is “inhibited”. Besides, in experiment [3] (Compound A 10 uM, CSS media), the “caspase 3/7 activity induction in VCaP cells, CSS media” value came out at 11 fold. Further, in experiment [3] (Compound A 10 uM, growth media), the “caspase 3/7 activity induction in VCaP cells, growth media” value was found to be 2 fold.
